In patent US20110087015A1, “Nucleoside and nucleotide having an unnatural base and use thereof” (priority 2003, published 2011):
Entries after “also recorded” stand apart in the source; their conditions may differ. Read-outs that look alike come from different tables or passages of the source.

What was measured:
[1] = target: T1, Klenow fragment (Large Fragment E. coli DNA Polymerase I) (Escherichia coli, UniProt P00582); test: Klenow fragment-mediated elongation reaction (replication); assay type: biochemical; conditions: substrates A; for replication with two adjacent unnatural bases in template (35-mer product): G, y, NN=vv or NN=ss
T1 construct: purchased TaKaRa
T1 sequence (P00582 324-928): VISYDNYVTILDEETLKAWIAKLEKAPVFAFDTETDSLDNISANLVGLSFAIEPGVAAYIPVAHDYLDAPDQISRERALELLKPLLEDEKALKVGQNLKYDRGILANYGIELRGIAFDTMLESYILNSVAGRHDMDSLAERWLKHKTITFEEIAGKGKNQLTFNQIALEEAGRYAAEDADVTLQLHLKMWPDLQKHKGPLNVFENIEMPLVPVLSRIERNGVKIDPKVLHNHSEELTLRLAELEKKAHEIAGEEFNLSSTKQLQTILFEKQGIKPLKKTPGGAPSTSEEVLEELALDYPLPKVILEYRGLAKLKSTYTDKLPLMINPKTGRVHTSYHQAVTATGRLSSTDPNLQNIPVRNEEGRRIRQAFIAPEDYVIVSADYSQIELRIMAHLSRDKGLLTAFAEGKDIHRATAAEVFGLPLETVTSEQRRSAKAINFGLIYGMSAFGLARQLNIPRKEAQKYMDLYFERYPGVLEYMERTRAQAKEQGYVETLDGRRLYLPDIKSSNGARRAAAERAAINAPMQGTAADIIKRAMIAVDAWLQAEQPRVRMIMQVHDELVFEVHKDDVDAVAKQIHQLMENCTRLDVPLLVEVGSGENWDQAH
Source text: This example was intended to study selective introduction of y at a site corresponding to v in the complementary DNA strand during Klenow fragment-mediated elongation reaction, rather than single-base incorporation. The reaction primer DNA and template DNA used are shown below.
As in the case of Example 2, the primer was pre-labeled at its 5′-end using […] and then purified by gel electrophoresis. In Experiments 2 and 3, the base y is incorporated as the first base of elongation from the primer. In contrast, in this experiment, v in the template is located at a position corresponding to the severalth base elongated from the primer, and it is therefore possible to study the introduction of y at a site corresponding to v in the complementary DNA strand during elongation reaction.
The template DNA (400 nM) and the primer whose 5′-end was labeled with ^32P (FIG. 11) (400 nM), each of which had been dissolved in 2× reaction buffer (20 mM Tris-HCl pH 7.5, 14 mM MgCl2, 0.2 mM DTT), were heated at 95° C. for 3 minutes and then annealed by quenching to form a duplex. After this duplex DNA solution was dispensed in 5 μl aliquots, 2 μl of a dNTP solution (a combination shown in each lane of FIG. 12 or 13) (50 μM) and 3 μl (0.15 units) of Klenow fragment (KF exo^+; Cloned Klenow Fragment for sequencing (Large Fragment E. coli DNA Polymerase I), purchased from TaKaRa) diluted with water were added to start the enzymatic reaction at 37° C. After incubation for 3 minutes, the enzymatic reaction was stopped by adding 10 μl of a 10 M urea-containing TBE solution and heating at 75° C. for 3 minutes. The reaction conditions are summarized as follows: template/primer 200 nM; KF […] 0.015U/μl; dNTPs 10 μM; reaction at 37° C. for 3 minutes.
Aliquot parts of the reaction solutions were electrophoresed on a 15% polyacrylamide-7 M urea gel and the reaction products were analyzed with a bioimaging analyzer (BAS2500, Fuji Photo Film Co., Ltd., Japan). […]

[2] = target: T2, Klenow fragment (KF exo−), DNA polymerase I lacking 3′→5′ exonuclease activity (Escherichia coli, UniProt P00582, D355A/E357A); test: Klenow fragment-mediated single nucleotide insertion experiment (replication); assay type: biochemical, E. coli
T2 construct: Large fragment of DNA polymerase Exonuclease-free Klenow enzyme (Cloned) (Amersham USB); purchased Amersham USB
T2 sequence (P00582 324-928 D355A/E357A): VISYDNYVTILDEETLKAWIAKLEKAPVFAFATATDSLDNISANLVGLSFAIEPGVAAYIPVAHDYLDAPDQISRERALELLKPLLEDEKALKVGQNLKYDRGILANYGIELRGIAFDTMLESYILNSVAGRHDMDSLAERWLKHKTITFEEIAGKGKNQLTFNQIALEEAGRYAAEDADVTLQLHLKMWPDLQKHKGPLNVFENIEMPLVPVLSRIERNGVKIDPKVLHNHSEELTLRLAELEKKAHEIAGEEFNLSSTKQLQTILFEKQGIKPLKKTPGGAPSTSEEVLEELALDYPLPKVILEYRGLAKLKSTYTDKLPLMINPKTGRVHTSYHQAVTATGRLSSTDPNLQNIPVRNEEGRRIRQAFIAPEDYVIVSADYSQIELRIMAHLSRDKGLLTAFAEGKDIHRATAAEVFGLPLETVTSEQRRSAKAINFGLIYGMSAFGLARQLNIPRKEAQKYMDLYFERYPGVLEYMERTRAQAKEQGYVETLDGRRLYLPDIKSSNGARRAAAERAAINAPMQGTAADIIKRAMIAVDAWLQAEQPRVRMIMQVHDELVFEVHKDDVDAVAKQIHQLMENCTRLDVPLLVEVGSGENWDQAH
Source text: In this example, E. coli-derived DNA polymerase I lacking 3′→5′ exonuclease activity, i.e., Klenow fragment (KF exo^−) was used to make a comparison of the efficiency for single nucleotide incorporation during replication (i.e., incorporation of 2-oxo-(1H)pyridine (y) into DNA) between v-y base pair (the present invention) and s-y base pair (control).
More specifically, Large fragment of DNA polymerase Exonuclease-free Klenow enzyme (Cloned) (Amersham USB) and 10× reaction buffer attached thereto (500 mM Tris-HCl pH 7.5, 100 mM MgCl2, 10 mM DTT, 0.5 mg/ml BSA) were used. The enzyme concentration of KF exo^− was determined using a Bio-Rad Protein Assay kit (BioRad) for each lot purchased.
The primer for use in the reaction was pre-labeled at its 5′-end using T4 polynucleotide kinase (TaKaRa) and […], and then purified by gel electrophoresis.
Reaction conditions: a mixed solution of template DNA (20 μM, 1 μl), the primer whose 5′-end was labeled with ^32P (5 μM, 4 μl) and 10× reaction buffer (1 μl) was heated at 95° C. for 3 minutes and then annealed by quenching to form a duplex between the template DNA and the primer. A Klenow fragment solution (1 μM) diluted with enzyme dilution buffer (50 mM phosphate buffer pH 7, 50% glycerol, 1 mM DTT) was added in a volume of 2 μl and incubated at 37° C. for 2 minutes, followed by addition of 2 μl dNTP solution (any one of A, G, C, T or y shown in FIG. 8) (100 μM) to start the reaction. After incubation at 37° C. for 2 minutes, 10 μl of a 10 M urea-containing TBE solution was added and heated at 75° C. for 3 minutes to stop the reaction. The reaction conditions are summarized as follows: template/primer 2 μM; KF exo^− 200 nM; dNTP 20 μM; reaction at 37° C. for 2 minutes.
Aliquot parts of the reaction solutions were electrophoresed on a 20% polyacrylamide-7 M urea gel and the reaction products were analyzed with a bioimaging analyzer (BAS2500, Fuji Photo Film Co., Ltd., Japan).

[3] = target: T3, Klenow fragment (KF exo−) (Escherichia coli, UniProt P00582, D355A/E357A); assay type: biochemical, E. coli; conditions: for efficiency (Vmax/Km) / Vmax / Km: template base N = label; for Vmax: normalized to enzyme concentration 20 nM
T3 construct: Large fragment of DNA polymerase Exonuclease-free Klenow enzyme (Cloned) (Amersham USB); purchased Amersham USB
T3 sequence (P00582 324-928 D355A/E357A): as above
Source text: This example was intended to analyze reaction rate constants in the same Klenow fragment-mediated single nucleotide insertion reaction as shown in Example 2.
More specifically, the reaction primer used was a primer whose 5′-end was fluorescently labeled with 6-FAM (SEQ ID NO: 1, FIG. 10). The primer whose 5′-end was fluorescently labeled was purchased from Applied Biosystems among those commercially available as custom fluorescent primers for GeneScan, and purified by gel electrophoresis. The analysis of reaction products was performed with a DNA sequencer (Applied Biosystems; model ABI377).
Reaction conditions: Template DNA (SEQ ID NO: 2 or 3) (10 μM) and the fluorescently-labeled primer (10 μM), each of which had been dissolved in 2× reaction buffer (100 mM Tris-HCl pH 7.5, 20 mM MgCl2, 2 mM DTT, 100 μg/ml BSA), were heated at 95° C. for 3 minutes and then annealed by quenching to form a duplex between the template and the primer. After this duplex DNA solution was dispensed in 5 μl aliquots, a KF exo^− solution (15-250 nM) diluted with enzyme dilution buffer was added in a volume of 2 μl, followed by incubation at 37° C. for 2 minutes to form a DNA-enzyme complex. The resulting solution was supplemented with 3 μl dNTP solution (any one of A, G, C, T or y) (100 μM-7 mM) and enzymatically reacted at 37° C. (1.5-20 minutes). The reaction was stopped by adding 10 μl of a 95% formamide solution containing 20 mM EDTA (stop solution) and heating at 75° C. for 3 minutes.
The reaction conditions are summarized as follows: 5 μM template-primer duplex, 3-50 nM enzyme and 30-2100 μM dNTP are used in a solution (10 μl). The solution (10 μl) contains 50 mM Tris-HCl (pH 7.5), 10 mM MgCl2, 1 mM DTT and 0.05 mg/ml BSA. The reaction is performed at 37° C. for 1.5-20 minutes.
After aliquot parts of the reaction solutions were diluted 50-fold with the stop solution, the thus diluted reaction solutions (0.5 μl) were each mixed with 3 μl loading solution (deionized formamide:50 mg/mL blue dextran solution containing 25 mM EDTA=5:1), heated at 90° C. for 2 minutes and then quenched on ice. Aliquots (about 0.5 μl) of the resulting solutions were loaded on every other lane of a sequence gel and electrophoresed. The sequence gel (36 cm WTR) has the following composition: 6 M urea, 8% polyacrylamide (acrylamide:bisacrylamide=19:1), and 0.5×TBE. The electrophoresis buffer used was 0.5×TBE. The run module used was GS Run 36C-2400. The electrophoresis time was set to about 1 hour, and peak patterns of the reaction products were analyzed and quantified using GeneScan Software (Version 3.0).
Using the peak heights of the unreacted primer fragment and single nucleotide-inserted DNA fragments, the percentage of each primer elongated by a single nucleotide was determined to calculate enzymological parameters Km and Vmax from Hanes-Woolf plots (Goodman, M. F., Creighton, S., Bloom, L. B., Petruska, J. Crit. Rev. Biochem. Mol. Biol., 28, 83-126 (1993)).

T7 RNA polymerase = target: T4, T7 RNA polymerase (Escherichia phage T7, UniProt P00573); test: Site-selective introduction of ryTP into RNA through transcription; assay type: biochemical; conditions: for incorporation efficiency of the substrate y into RNA (transcription efficiency): one unnatural base in template (vT or sT), compared to natural base pairing (AT); for transcription efficiency, two y substrates incorporated into RNA: two adjacent unnatural bases in template (NN=vv or NN=ss)
T4 construct: purchased TAKARA SHUZO CO., LTD (TaKaRa)
T4 sequence (P00573 whole entry): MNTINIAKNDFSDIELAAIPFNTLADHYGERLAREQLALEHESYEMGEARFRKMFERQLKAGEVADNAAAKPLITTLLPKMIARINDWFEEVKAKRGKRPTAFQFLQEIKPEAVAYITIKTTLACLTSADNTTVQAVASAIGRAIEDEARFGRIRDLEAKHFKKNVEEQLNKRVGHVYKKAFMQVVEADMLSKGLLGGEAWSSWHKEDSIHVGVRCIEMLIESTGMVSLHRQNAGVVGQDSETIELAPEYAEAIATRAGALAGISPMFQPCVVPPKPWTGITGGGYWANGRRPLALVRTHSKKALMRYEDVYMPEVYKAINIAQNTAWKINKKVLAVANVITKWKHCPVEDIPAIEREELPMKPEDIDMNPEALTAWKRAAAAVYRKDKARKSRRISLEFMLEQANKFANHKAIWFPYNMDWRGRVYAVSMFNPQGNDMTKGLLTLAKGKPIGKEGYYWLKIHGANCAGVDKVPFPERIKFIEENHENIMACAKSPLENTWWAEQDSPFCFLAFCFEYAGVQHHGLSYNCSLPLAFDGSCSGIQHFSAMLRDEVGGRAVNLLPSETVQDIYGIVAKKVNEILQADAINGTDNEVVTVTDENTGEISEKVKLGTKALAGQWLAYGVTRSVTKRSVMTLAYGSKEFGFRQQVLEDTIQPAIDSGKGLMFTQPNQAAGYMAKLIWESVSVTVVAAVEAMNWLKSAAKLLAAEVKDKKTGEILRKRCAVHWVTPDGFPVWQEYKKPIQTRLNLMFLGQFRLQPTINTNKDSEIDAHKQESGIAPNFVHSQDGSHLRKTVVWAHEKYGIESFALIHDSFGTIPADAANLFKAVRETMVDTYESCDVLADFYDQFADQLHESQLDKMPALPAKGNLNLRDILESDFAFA
Protocol: This example was intended to study site-selective introduction of ryTP into RNA through transcription reaction. […] The DNA primer required for the transcription reaction had the following sequence.
A template and T7prim21 were mixed in 10 mM Tris-HCl (pH 7.6) containing 10 mM NaCl and annealed into a double-stranded form for use in the transcription reaction (FIG. 14). The T7 transcription reaction was performed on 20 μl scale using an enzyme from TAKARA SHUZO CO., LTD [T. Ohtsuki et al., Proc. Natl. Acad. Sci. USA, 98, 4922-4925 (2001)]. More specifically, the transcription reaction was accomplished by incubation at 37° C. for 3 hours in a reaction solution containing 40 mM Tris-HCl pH 8.0, 5 mM DTT, 24 mM MgCl2, 2 mM spermidine, 0.01% TritonX-100, 10 mM GMP, 1 mM NTPs (N=G, C, U, with or without ryTP, as shown in FIGS. 15 and 16), 2 μCi [α-^32P]ATP, 2 μM double-stranded DNA (template and T7prim21), and 2.5 U/μl T7 RNA polymerase (TaKaRa). If the transcription reaction proceeds completely, an RNA product having the following full-length sequence can be obtained.
The reaction solutions were each supplemented with an equal volume of a 10 M urea-containing BPBdye solution and heated at 75° C. for 3 minutes to stop the reaction, followed by electrophoresis on a 20% polyacrylamide-7 M urea gel to confirm products of the transcription reaction. The [α-^32P]ATP-labeled reaction products were analyzed with a bioimaging analyzer (BAS2500, Fuji Photo Film Co., Ltd., Japan). The incorporation efficiency of the substrate y into RNA when using the sT-containing template in transcription with T7 RNA polymerase (FIG. 14) was about 50% to 60%, as compared to natural base pairing (AT). In contrast, when using the vT-containing template, the incorporation efficiency of the substrate y was 96%, which was as high as that of natural base pairing (FIG. 15).

[4] = template/primer 2 μM, KF exo− 200 nM, dNTP 20 μM, 37° C., 2 minutes

Row | Compound | replication with two adjacent unnatural bases in template (35-mer product) [1] | efficiency (Vmax/Km) ([3]; N′ = A) | Vmax ([3]; N′ = A, SD in parentheses) | efficiency (Vmax/Km) ([3]; N′ = C) | Vmax ([3]; N′ = C, SD in parentheses) | efficiency (Vmax/Km) ([3]; N′ = T) | Vmax ([3]; N′ = T, SD in parentheses) | efficiency (Vmax/Km) ([3]; N′ = y) | Vmax ([3]; N′ = y, SD in parentheses) | incorporation efficiency of the substrate y into RNA (transcription efficiency) (T7 RNA polymerase) | transcription efficiency, two y substrates incorporated into RNA (T7 RNA polymerase) | further results
1 | Nc1nc(-c2nccs2)c2[nH]cnc2n1 [v, 2-amino-6-(2-thiazolyl)purine] | allows replication to proceed | 3.3 × 10^3 % min^−1M^−1 | 0.36(0.08) % min^−1 | 4.1×10^4 % min^−1M^−1 | 22(5) % min^−1 | 5.1×10^3 % min^−1M^−1 | 2.0(0.7) % min^−1 | 1.4×10^5 % min^−1M^−1 | 40(21) % min^−1 | 96% | about 30% | replication efficiency in elongation reaction (35-mer band intensity) ([1]; G and y, one unnatural base in template (NN=vT vs NN=sT)): higher replication efficiency than the s-y base pair; incorporation selectivity opposite y ([2]; compared with s): comparable to the selectivity of s; incorporation of C opposite the template base [2, 4]: also incorporated although in a small amount; incorporation of y at the site corresponding to the template base [2, 4]: selectively incorporated; incorporation efficiency of y opposite v relative to y opposite s ([3]; ratio of Vmax/Km): about 4 fold; incorporation efficiency of y opposite v relative to C incorporation ([3]; selectivity, ratio of Vmax/Km): about 3 fold; incorporation efficiency of y opposite v relative to T incorporation ([3]; selectivity, ratio of Vmax/Km): ≥ 20 fold
2 | Nc1nc(-c2cccs2)c2[nH]cnc2n1 [s, 2-amino-6-thienylpurine, reference compound] | little 35-mer product was obtained; also recorded: little incorporation of y | 3.0 × 10^3 % min^−1M^−1 | 0.26(0.06) % min^−1 | 2.5 × 10^4 % min^−1M^−1 | 15(5) % min^−1 | 9.4 × 10^3 % min^−1M^−1 | 3.0(0.3) % min^−1 | 3.6×10^4 % min^−1M^−1 | 9.4(2.5) % min^−1 | 50-60% | no RNA incorporating two y was obtained | Km ([3]; N′ = A, SD in parentheses): 86 µM; Km ([3]; N′ = C, SD in parentheses): 590 µM; Km ([3]; N′ = T, SD in parentheses): 320 µM; Km ([3]; nucleoside triphosphate N′ = y, standard deviation in parentheses): 260 µM
